Results published in ChEMBL document CHEMBL3991601, “The target landscape of clinical kinase drugs” (Science, 2017).
Calls of active or inactive are those of the source. Cut-off read from the data, not from the text of the source, for most assays here: actives have a measured Kd and inactives only a lower limit.

Legend:
[1] = target: T1, Serine/threonine-protein kinase TAO1 (Homo sapiens, UniProt Q7L7X3)
T1 sequence (Q7L7X3 whole entry): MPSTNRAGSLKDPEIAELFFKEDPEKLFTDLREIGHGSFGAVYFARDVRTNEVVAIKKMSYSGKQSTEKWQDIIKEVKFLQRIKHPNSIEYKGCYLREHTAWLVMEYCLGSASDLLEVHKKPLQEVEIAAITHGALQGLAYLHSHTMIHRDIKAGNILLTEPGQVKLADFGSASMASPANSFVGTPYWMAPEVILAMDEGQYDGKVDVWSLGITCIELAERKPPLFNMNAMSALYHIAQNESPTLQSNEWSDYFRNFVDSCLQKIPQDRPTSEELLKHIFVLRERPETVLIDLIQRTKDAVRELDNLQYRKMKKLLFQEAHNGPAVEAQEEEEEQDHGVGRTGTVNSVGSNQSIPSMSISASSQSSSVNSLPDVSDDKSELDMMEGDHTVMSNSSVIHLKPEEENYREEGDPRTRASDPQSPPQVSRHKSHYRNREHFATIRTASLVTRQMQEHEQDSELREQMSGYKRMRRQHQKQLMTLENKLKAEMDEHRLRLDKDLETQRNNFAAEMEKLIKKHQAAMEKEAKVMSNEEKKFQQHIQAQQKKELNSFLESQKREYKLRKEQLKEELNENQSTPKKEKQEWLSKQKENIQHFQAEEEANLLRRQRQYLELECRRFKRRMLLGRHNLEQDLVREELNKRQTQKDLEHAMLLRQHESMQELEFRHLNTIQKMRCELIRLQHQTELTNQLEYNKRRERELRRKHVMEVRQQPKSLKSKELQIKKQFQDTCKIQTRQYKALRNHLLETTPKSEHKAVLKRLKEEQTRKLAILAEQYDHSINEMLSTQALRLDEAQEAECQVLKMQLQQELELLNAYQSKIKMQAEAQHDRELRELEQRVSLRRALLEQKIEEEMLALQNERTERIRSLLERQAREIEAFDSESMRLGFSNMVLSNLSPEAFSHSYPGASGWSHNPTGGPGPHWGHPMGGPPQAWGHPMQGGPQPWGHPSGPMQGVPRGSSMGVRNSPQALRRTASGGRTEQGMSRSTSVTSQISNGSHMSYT

Insulin receptor = Insulin receptor (Homo sapiens, UniProt P06213)
Chain of Insulin receptor (P06213 28-758 limits assumed): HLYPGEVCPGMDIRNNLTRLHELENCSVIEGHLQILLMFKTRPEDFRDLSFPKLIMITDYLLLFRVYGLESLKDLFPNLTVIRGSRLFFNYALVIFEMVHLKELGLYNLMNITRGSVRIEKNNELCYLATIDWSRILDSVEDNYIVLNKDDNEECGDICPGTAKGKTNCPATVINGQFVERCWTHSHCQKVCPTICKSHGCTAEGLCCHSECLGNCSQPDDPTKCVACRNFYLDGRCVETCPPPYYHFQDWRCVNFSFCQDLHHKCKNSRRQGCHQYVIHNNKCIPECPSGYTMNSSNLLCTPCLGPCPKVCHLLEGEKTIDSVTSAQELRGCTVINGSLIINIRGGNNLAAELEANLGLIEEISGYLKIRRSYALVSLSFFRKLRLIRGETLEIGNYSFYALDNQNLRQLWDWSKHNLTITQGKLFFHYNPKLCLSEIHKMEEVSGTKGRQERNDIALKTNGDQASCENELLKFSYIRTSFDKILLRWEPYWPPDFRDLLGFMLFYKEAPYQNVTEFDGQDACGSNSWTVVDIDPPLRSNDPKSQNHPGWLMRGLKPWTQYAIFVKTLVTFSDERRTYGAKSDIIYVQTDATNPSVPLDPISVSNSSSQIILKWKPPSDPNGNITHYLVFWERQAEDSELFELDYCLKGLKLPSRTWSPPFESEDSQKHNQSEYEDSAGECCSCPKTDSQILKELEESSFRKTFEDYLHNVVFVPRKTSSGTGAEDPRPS
Chain of Insulin receptor (P06213 763-1382 limits assumed): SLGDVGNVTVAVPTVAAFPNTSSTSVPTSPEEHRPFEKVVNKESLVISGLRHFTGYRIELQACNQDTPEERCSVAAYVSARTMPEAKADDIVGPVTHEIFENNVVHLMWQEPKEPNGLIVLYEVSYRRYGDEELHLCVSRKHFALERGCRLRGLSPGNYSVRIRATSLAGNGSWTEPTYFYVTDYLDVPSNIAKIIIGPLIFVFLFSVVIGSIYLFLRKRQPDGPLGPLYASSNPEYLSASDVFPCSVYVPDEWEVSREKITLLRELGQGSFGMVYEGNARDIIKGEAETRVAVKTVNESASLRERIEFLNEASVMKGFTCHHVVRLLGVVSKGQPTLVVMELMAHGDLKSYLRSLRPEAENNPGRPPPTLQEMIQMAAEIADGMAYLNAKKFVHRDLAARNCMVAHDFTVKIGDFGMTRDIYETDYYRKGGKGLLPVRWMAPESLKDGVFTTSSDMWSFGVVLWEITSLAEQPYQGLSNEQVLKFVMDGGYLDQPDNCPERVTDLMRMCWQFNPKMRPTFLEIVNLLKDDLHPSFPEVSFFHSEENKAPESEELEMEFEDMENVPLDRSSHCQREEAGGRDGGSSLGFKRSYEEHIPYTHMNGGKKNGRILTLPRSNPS

[2] = target: MAP/microtubule affinity-regulating kinase 3 (Homo sapiens, UniProt P27448)
[3] = target: T2, RNA cytidine acetyltransferase (Homo sapiens, UniProt Q9H0A0)
T2 sequence (Q9H0A0 whole entry): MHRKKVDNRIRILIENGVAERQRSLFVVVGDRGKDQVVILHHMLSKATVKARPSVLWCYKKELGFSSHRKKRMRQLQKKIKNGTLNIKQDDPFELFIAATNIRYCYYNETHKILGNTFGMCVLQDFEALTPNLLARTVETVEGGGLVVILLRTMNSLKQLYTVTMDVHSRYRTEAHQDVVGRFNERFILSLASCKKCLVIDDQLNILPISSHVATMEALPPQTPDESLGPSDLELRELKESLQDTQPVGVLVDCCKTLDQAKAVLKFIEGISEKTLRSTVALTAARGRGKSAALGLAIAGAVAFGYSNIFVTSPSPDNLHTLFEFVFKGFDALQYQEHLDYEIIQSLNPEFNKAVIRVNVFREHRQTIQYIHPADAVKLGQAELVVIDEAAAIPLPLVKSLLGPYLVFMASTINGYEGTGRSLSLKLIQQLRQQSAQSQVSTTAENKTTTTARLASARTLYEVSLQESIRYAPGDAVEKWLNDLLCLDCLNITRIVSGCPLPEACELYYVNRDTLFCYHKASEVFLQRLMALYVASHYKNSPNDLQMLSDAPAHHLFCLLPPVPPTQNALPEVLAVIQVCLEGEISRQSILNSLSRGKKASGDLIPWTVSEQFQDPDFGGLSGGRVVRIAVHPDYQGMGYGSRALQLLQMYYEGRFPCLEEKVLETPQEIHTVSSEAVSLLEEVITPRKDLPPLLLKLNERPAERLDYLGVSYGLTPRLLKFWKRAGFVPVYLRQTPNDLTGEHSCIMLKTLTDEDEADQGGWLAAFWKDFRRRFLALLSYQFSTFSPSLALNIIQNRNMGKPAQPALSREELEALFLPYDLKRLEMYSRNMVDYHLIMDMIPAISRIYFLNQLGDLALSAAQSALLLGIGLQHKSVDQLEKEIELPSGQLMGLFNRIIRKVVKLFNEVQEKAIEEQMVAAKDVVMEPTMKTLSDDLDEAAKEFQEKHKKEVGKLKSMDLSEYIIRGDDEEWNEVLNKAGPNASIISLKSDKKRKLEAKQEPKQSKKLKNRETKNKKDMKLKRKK

Ephrin type-A receptor 7 = Ephrin type-A receptor 7 (Homo sapiens, UniProt Q15375)
Chain of Ephrin type-A receptor 7 (Q15375 whole entry): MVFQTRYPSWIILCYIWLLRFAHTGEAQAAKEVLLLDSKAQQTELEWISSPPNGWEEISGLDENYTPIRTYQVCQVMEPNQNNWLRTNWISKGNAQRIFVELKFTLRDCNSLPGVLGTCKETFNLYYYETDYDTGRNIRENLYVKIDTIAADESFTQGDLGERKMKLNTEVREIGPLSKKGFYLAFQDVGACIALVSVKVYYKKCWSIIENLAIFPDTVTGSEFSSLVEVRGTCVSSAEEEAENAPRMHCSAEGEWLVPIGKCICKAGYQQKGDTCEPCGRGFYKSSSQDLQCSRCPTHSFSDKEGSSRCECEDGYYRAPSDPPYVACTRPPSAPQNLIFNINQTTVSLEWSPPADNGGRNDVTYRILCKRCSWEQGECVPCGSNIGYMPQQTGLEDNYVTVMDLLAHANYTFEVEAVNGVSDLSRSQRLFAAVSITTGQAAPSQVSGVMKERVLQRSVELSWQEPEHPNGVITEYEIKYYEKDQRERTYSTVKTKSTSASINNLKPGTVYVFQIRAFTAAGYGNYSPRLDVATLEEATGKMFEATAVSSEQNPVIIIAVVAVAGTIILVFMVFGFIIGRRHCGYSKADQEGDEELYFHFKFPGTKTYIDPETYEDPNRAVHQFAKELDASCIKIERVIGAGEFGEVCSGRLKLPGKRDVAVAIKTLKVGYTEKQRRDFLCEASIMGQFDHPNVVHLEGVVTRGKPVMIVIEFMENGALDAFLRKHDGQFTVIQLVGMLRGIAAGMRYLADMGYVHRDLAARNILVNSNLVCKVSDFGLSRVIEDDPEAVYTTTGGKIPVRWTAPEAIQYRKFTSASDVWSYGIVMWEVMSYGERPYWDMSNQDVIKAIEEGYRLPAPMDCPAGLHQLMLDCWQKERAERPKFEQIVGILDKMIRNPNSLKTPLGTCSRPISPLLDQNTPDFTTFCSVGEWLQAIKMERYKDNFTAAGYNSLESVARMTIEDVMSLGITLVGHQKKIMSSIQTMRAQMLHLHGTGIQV

[4] = target: Chromodomain-helicase-DNA-binding protein 4 (Homo sapiens, UniProt Q14839)
Chain of Chromodomain-helicase-DNA-binding protein 4 (Q14839 whole entry): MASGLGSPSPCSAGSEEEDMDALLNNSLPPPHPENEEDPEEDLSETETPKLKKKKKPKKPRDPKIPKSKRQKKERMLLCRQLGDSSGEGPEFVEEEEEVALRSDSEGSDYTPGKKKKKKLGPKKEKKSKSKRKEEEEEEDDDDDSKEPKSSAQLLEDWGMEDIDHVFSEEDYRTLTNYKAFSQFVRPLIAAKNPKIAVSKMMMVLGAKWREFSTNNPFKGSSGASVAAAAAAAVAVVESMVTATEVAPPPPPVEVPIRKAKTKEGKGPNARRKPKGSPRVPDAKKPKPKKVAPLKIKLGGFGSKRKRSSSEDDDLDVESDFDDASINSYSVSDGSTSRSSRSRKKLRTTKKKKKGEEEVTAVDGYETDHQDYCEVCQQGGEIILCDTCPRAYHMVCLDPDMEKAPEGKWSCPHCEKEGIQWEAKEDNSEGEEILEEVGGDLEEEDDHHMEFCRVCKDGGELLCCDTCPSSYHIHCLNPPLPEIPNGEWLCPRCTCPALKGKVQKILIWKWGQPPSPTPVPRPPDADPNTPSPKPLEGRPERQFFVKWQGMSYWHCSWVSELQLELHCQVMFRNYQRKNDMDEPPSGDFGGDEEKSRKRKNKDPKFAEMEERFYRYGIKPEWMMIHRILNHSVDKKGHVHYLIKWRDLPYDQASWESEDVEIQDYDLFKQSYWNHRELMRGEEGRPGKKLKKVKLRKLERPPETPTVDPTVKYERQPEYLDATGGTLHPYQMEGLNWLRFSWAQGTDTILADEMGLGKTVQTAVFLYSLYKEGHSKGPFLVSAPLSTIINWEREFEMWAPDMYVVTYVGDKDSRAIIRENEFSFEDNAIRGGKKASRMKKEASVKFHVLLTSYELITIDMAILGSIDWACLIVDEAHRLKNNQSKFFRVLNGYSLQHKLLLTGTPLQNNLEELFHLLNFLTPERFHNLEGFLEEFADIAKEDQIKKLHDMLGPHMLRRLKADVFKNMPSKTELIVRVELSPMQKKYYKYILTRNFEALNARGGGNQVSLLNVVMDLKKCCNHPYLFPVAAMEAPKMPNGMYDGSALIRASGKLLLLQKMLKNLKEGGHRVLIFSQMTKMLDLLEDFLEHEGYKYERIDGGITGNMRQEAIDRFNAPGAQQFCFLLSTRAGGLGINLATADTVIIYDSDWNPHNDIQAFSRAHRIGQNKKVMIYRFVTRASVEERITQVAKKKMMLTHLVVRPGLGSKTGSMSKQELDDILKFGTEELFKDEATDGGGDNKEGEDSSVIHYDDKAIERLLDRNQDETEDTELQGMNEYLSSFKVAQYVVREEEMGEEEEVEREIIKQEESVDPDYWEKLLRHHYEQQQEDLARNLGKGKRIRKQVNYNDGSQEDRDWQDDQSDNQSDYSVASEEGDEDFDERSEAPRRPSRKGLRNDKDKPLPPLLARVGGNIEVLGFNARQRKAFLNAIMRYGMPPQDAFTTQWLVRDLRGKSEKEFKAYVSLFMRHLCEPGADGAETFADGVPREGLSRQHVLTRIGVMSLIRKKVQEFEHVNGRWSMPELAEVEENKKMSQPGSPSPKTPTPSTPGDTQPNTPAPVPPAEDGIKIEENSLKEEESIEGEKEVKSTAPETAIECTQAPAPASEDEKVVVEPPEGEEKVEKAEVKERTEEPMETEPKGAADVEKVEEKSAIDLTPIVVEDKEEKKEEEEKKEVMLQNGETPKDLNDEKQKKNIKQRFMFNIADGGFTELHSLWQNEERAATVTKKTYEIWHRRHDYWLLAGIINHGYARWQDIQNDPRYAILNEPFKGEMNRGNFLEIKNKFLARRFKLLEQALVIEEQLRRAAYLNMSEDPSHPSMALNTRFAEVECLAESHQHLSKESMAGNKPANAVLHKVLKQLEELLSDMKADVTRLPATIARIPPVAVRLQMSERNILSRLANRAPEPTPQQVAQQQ

[5] = target: Serine/threonine-protein kinase 26 (Homo sapiens, UniProt Q9P289)
Chain of Serine/threonine-protein kinase 26 (Q9P289 whole entry): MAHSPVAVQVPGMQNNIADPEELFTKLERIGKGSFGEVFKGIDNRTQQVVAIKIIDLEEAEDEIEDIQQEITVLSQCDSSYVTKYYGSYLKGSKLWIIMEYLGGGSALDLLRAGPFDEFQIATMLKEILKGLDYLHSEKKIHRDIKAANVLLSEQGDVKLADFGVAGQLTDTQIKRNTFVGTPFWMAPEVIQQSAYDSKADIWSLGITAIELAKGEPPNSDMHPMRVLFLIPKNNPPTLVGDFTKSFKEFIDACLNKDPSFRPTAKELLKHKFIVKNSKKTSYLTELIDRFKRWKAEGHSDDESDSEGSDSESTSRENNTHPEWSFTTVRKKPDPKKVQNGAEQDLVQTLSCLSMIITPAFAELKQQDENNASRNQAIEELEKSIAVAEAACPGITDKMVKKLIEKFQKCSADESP

Ephrin type-A receptor 2 = Ephrin type-A receptor 2 (Homo sapiens, UniProt P29317)
[6] = target: Dual specificity mitogen-activated protein kinase kinase 2 (Homo sapiens, UniProt P36507)
Chain of Dual specificity mitogen-activated protein kinase kinase 2 (P36507 whole entry): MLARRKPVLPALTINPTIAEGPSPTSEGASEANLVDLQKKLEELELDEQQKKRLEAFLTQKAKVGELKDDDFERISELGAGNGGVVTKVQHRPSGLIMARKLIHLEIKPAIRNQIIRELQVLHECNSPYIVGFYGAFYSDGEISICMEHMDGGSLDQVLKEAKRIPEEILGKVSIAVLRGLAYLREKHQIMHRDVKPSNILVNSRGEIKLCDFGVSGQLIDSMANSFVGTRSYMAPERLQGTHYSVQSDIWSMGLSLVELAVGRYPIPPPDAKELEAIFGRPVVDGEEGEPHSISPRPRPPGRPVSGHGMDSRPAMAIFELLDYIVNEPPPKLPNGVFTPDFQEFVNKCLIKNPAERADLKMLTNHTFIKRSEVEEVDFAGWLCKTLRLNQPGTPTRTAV

[7] = target: T3, NUAK family SNF1-like kinase 2 (Homo sapiens, UniProt Q9H093)
T3 sequence (Q9H093 whole entry): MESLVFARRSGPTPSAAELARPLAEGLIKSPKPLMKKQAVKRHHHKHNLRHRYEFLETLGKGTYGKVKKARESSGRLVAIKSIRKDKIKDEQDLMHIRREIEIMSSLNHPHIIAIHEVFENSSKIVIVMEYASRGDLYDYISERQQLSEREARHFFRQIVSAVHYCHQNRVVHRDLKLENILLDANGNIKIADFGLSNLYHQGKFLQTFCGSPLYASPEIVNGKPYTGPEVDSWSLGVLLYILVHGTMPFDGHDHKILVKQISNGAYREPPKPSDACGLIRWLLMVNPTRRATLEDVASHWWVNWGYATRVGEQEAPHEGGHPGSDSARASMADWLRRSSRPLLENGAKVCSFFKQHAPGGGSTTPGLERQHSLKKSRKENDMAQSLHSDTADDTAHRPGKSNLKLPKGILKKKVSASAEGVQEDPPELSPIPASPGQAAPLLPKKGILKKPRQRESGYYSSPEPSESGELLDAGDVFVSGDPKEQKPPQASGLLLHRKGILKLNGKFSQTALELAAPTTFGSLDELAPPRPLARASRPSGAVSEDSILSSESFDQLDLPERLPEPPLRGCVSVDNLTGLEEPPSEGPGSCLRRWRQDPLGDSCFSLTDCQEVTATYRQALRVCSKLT

Measured: Kd
Note: in the data inactive means no Kd found up to 30 µM.

O=C(Nc1nc2cccc(-c3ccc(CN4CCS(=O)(=O)CC4)cc3)n2n1)C1CC1 [FILGOTINIB]
inactive: [1] > 30 µM | Insulin receptor > 30 µM | [2] > 30 µM | [3] > 30 µM | Ephrin type-A receptor 7 > 30 µM | [4] > 30 µM | [5] > 30 µM | Ephrin type-A receptor 2 > 30 µM | [6] > 30 µM | [7] > 30 µM

Cc1cccc(-c2nn3c(c2-c2ccnc4ccc(C(N)=O)cc24)CCC3)n1 [GALUNISERTIB]
inactive: [1] > 30 µM | Insulin receptor > 30 µM | [2] > 30 µM | [3] > 30 µM | Ephrin type-A receptor 7 > 30 µM | [4] > 30 µM | [5] > 30 µM | Ephrin type-A receptor 2 > 30 µM | [6] > 30 µM | [7] > 30 µM

COc1ccc(S(=O)(=O)N(C(C)=O)c2ccccc2/C=C/c2cc[n+]([O-])cc2)cc1 [HMN-214]
inactive: [1] > 30 µM | Insulin receptor > 30 µM | [2] > 30 µM | [3] > 30 µM | Ephrin type-A receptor 7 > 30 µM | [4] > 30 µM | [5] > 30 µM | Ephrin type-A receptor 2 > 30 µM | [6] > 30 µM | [7] > 30 µM

O=C(Nc1cc(C(F)(F)F)cc(C(F)(F)F)c1)c1cc(Cl)ccc1O [IMD-0354]
inactive: [1] > 30 µM | Insulin receptor > 30 µM | [2] > 30 µM | [3] > 30 µM | Ephrin type-A receptor 7 > 30 µM | [4] > 30 µM | [5] > 30 µM | Ephrin type-A receptor 2 > 30 µM | [6] > 30 µM | [7] > 30 µM

CNC(=O)c1cccc2cc(Oc3ccnc4cc(OCC5(N)CC5)c(OC)cc34)ccc12 [LUCITANIB]
inactive: [1] > 30 µM | Insulin receptor > 30 µM | [2] > 30 µM | [3] > 30 µM | Ephrin type-A receptor 7 > 30 µM | [4] > 30 µM | [5] > 30 µM | Ephrin type-A receptor 2 > 30 µM | [6] > 30 µM | [7] > 30 µM

NC1(c2ccc(-c3nc4ccn5c(=O)[nH]nc5c4cc3-c3ccccc3)cc2)CCC1 [MK-2206]
inactive: [1] > 30 µM | Insulin receptor > 30 µM | [2] > 30 µM | [3] > 30 µM | Ephrin type-A receptor 7 > 30 µM | [4] > 30 µM | [5] > 30 µM | Ephrin type-A receptor 2 > 30 µM | [6] > 30 µM | [7] > 30 µM

CN(C[C@@H]1COCCO1)S(=O)(=O)Nc1ccc2ccc3ncc(-c4cnn(C)c4)cc3c(=O)c2c1 [MK-2461]
inactive: [1] > 30 µM | Insulin receptor > 30 µM | [2] > 30 µM | [3] > 30 µM | Ephrin type-A receptor 7 > 30 µM | [4] > 30 µM | [5] > 30 µM | Ephrin type-A receptor 2 > 30 µM | [6] > 30 µM | [7] > 30 µM

Cn1cc(-c2cnc3ccc4ccc(CS(=O)(=O)NCc5ccccn5)cc4c(=O)c3c2)cn1 [MK-8033]
inactive: [1] > 30 µM | Insulin receptor > 30 µM | [2] > 30 µM | [3] > 30 µM | Ephrin type-A receptor 7 > 30 µM | [4] > 30 µM | [5] > 30 µM | Ephrin type-A receptor 2 > 30 µM | [6] > 30 µM | [7] > 30 µM

FC(F)(F)c1ccc(/C=C/c2nc(COc3ccc(CCCCn4ccnn4)cc3)co2)cc1 [MUBRITINIB]
inactive: [1] > 30 µM | Insulin receptor > 30 µM | [2] > 30 µM | [3] > 30 µM | Ephrin type-A receptor 7 > 30 µM | [4] > 30 µM | [5] > 30 µM | Ephrin type-A receptor 2 > 30 µM | [6] > 30 µM | [7] > 30 µM

COc1ncc(-c2ccc3nccc(-c4ccnnc4)c3c2)cc1NS(=O)(=O)c1ccc(F)cc1F [OMIPALISIB]
inactive: [1] > 30 µM | Insulin receptor > 30 µM | [2] > 30 µM | [3] > 30 µM | Ephrin type-A receptor 7 > 30 µM | [4] > 30 µM | [5] > 30 µM | Ephrin type-A receptor 2 > 30 µM | [6] > 30 µM | [7] > 30 µM
